Molecules are shown by their SMILES.

The series in a line: Henry solubility constant Hcp at 298.15 K (mol/(m3 Pa)). The settings on record: reference: Ji et al. (2008).
Consider `CC(=O)c1ccccc1O` [2′-hydroxyacetophenone], for which the “Henry solubility constant Hcp” value worked out at 1.
In the case of `CCC(=O)c1ccccc1` [phenyl ethyl ketone] it was 0.99; in that of `COc1cccc(C=O)c1` [3-methoxybenzaldehyde], 5.1.
Turning to `CC(=O)c1ccccc1C` [2′-methylacetophenone], the “Henry solubility constant Hcp” value was 0.76.
In the case of `COc1ccccc1C(C)=O` [2′-methoxyacetophenone] it was 17.
`CC(=O)c1ccc(C)cc1` [4'-methylacetophenone]: the “Henry solubility constant Hcp” value is 1.8.
Next, `CC(=O)c1cccc(C)c1` [3′-methylacetophenone]: 1.5.
Next, `CC(=O)c1ccccc1` [1-phenylethanone]: 1.2; `COc1ccc(C=O)cc1` [4-methoxybenzaldehyde]: 24; `COc1cccc(C(C)=O)c1` [3′-methoxyacetophenone]: 19.
In the case of `Cc1ccccc1C=O` [2-methylbenzaldehyde] it was 0.31; in that of `COc1ccccc1C=O` [2-methoxybenzaldehyde], 10.
Take `Cc1cccc(C=O)c1` [3-methylbenzaldehyde]: the “Henry solubility constant Hcp” value was determined as 0.35.

Source of the values: Sander's compilation of Henry's law constants (doi:10.1021/je700612b).
